The record followed here is patent US20120232069A1, “PROCESS FOR PREPARING EFAVIRENZ POLYMORPH” (HETERO RESEARCH FOUNDATION, priority 2008, published 2012).

This data set can be described thus: Hygroscopicity: increase of water content on storage at 25° C. under relative humidity of 60%. The data set is classed as physicochemical. The following applies: six months. The protocol: Thus, for example, water content of crystalline form H1 produced according to the present invention is increased by 0.2% in six months at the temperature of 25° C. under relative humidity of 60%. Crystalline form H1 obtained according to the present invention typically has the water content of 2.5-8% by weight of the product obtained, more preferably 3-7% by weight, still more preferably 4-6% by weight as determined by Karl fisher method.

Consider `O=C1Nc2ccc(Cl)cc2[C@@](C#CC2CC2)(C(F)(F)F)O1` [crystalline form H1 disclosed in WO 2006/018853] [(4S)-6-chloro-4-(cyclopropylethynyl)-1,4-dihydro-4-(trifluoromethyl)-2H-3,1-benzoxazin-2-one], for which the “increase of water content on storage” value is reported as 2.37%. `O=C1Nc2ccc(Cl)cc2[C@@](C#CC2CC2)(C(F)(F)F)O1` [crystalline form H1 produced according to the present invent] [(4S)-6-chloro-4-(cyclopropylethynyl)-1,4-dihydro-4-(trifluoromethyl)-2H-3,1-benzoxazin-2-one]: the “increase of water content on storage” value was 0.2%.
